The numbers were not newly measured in publication PMC9232612, “A phase 1b randomised controlled trial of a glucagon-like peptide-1 and glucagon receptor dual agonist IBI362 (LY3305677) in Chinese patients with type 2 diabetes” (Nature Communications, 2022), which cites them from elsewhere.

The conditions of series [1]: phase 2a, after 49 days of drug exposure; ref Parker VER et al. JCEM 2021;105(3):803-20; cited from earlier work. The method, then: page 3: doses of IBI362 (4.5 and 6 mg). It would be helpful to provide the time course of the GI adverse events to ascertain whether they occurred during the up-titration phase and whether the symptoms persisted during the 12 weeks. Only one participant in the IBI362 4.5 mg cohort withdrew from the study due to decreased appetite. The cardiovascular safety profile of IBI362 reported in this manuscript raised some safety concerns and will be addressed in greater detail herein. Cardiovascular disorders were reported in 5 participants receiving IBI362 compared with one in each of the placebo and ...

Series [2] relates to patients with T2D. The following applies: daily-dose, Japanese patients with T2D; cited from earlier work. The text has this: Several GLP-1 and glucagon dual agonists have shown either glycaemic control or weight loss benefit in various settings. […] SAR425899, a […] GLP-1 and glucagon receptor dual agonist, achieved placebo-adjusted mean HbA1c level reductions up to 0.75% in patients with overweight or obesity and T2D[11].

Consider Cotadutide, for which, in series [1], the “mean change in diastolic BP” value is on record as “+1.16 mm Hg”, the “mean change in systolic BP” value was -2.8 mm Hg and the “mean increase in heart rate” value was “+7.1 BPM”. Also, in series [2], the “reduction in body weight from baseline to day 50 (up to)” value is reported as “up to 3.3%”.
